A short description of this data set: Study on the stability of caspofungin with low solvent residue and hyposaline (storage, then HPLC purity). The format is physicochemical. The following applies: for Purity: HPLC purity after storing at −25~−20° C. for 30 days; for Initial purity: HPLC purity before storage; for stability of the samples (degradation by HPLC analysis): stored at −25-20° C. for 30 days. The method, then: In the present invention, HPLC is used to determine the purity of caspofungin or salts thereof (the compound of formula 1 or salts thereof), and to investigate the stability of sample. Said HPLC is described as follows:
Chromatographic column: 4.6×250 mm, 5 μm C18 column;
Mobile phase: A: 0.1% aqueous perchloric acid and 0.075% aqueous sodium chloride; B: acetonitrile;
Flow rate: 1.0 ml/min; Injection volume: 10 μL;
Column temperature: 35° C.±5° C.; Detection wavelength: 220 nm; Running time: 60 mins;
Retention time of major peak: about 27 min;
The samples prepared in the above example 3, example 4, example 5, example 6, example 7, example 8 and example 9 were stored at −25-20° C. for 30 days. And then HPLC analysis was applied on these samples.

For `CCC(C)CC(C)CCCCCCCCC(=O)N[C@H]1C[C@@H](O)[C@@H](NCCN)NC(=O)[C@@H]2[C@@H](O)CCN2C(=O)[C@H]([C@H](O)CCN)NC(=O)[C@H]([C@H](O)[C@@H](O)c2ccc(O)cc2)NC(=O)[C@@H]2C[C@@H](O)CN2C(=O)[C@H]([C@@H](C)O)NC1=O` (single isomer, unassigned) [Example 6, caspofungin diacetate], the Purity is 99.92%, the Initial purity is recorded as 99.92% and the “stability of the samples (degradation by HPLC analysis)” value (shortened to “stability of the samples”) was “no degradation occured”.
Take `CCC(C)CC(C)CCCCCCCCC(=O)N[C@H]1C[C@@H](O)[C@@H](NCCN)NC(=O)[C@@H]2[C@@H](O)CCN2C(=O)[C@H]([C@H](O)CCN)NC(=O)[C@H]([C@H](O)[C@@H](O)c2ccc(O)cc2)NC(=O)[C@@H]2C[C@@H](O)CN2C(=O)[C@H]([C@@H](C)O)NC1=O` (single isomer, unassigned) [Example 5, caspofungin diacetate]: the Purity is 99.91%, the Initial purity is on record as 99.91% and the “stability of the samples” value was “no degradation occured”.
For the compound `CCC(C)CC(C)CCCCCCCCC(=O)N[C@H]1C[C@@H](O)[C@@H](NCCN)NC(=O)[C@@H]2[C@@H](O)CCN2C(=O)[C@H]([C@H](O)CCN)NC(=O)[C@H]([C@H](O)[C@@H](O)c2ccc(O)cc2)NC(=O)[C@@H]2C[C@@H](O)CN2C(=O)[C@H]([C@@H](C)O)NC1=O` (single isomer, unassigned) [Example 7, caspofungin diacetate], the Purity amounted to 99.90%, the Initial purity is 99.90% and the “stability of the samples” value is “no degradation occured”.
With `CCC(C)CC(C)CCCCCCCCC(=O)N[C@H]1C[C@@H](O)[C@@H](NCCN)NC(=O)[C@@H]2[C@@H](O)CCN2C(=O)[C@H]([C@H](O)CCN)NC(=O)[C@H]([C@H](O)[C@@H](O)c2ccc(O)cc2)NC(=O)[C@@H]2C[C@@H](O)CN2C(=O)[C@H]([C@@H](C)O)NC1=O` (single isomer, unassigned) [Example 3, caspofungin diacetate], the Purity was found to be 99.90%, the Initial purity worked out at 99.90% and the “stability of the samples” value is on record as “no degradation occured”.
Regarding `CCC(C)CC(C)CCCCCCCCC(=O)N[C@H]1C[C@@H](O)[C@@H](NCCN)NC(=O)[C@@H]2[C@@H](O)CCN2C(=O)[C@H]([C@H](O)CCN)NC(=O)[C@H]([C@H](O)[C@@H](O)c2ccc(O)cc2)NC(=O)[C@@H]2C[C@@H](O)CN2C(=O)[C@H]([C@@H](C)O)NC1=O` (single isomer, unassigned) [Example 4, caspofungin diacetate], the Purity is 99.90%, the Initial purity amounted to 99.90% and the “stability of the samples” value is given as “no degradation occured”.
For the compound `CCC(C)CC(C)CCCCCCCCC(=O)N[C@H]1C[C@@H](O)[C@@H](NCCN)NC(=O)[C@@H]2[C@@H](O)CCN2C(=O)[C@H]([C@H](O)CCN)NC(=O)[C@H]([C@H](O)[C@@H](O)c2ccc(O)cc2)NC(=O)[C@@H]2C[C@@H](O)CN2C(=O)[C@H]([C@@H](C)O)NC1=O` (single isomer, unassigned) [Example 8, caspofungin diacetate], the Purity is reported as 99.88%, the Initial purity amounted to 99.88% and the “stability of the samples” value is recorded as “no degradation occured”.
On to `CCC(C)CC(C)CCCCCCCCC(=O)N[C@H]1C[C@@H](O)[C@@H](NCCN)NC(=O)[C@@H]2[C@@H](O)CCN2C(=O)[C@H]([C@H](O)CCN)NC(=O)[C@H]([C@H](O)[C@@H](O)c2ccc(O)cc2)NC(=O)[C@@H]2C[C@@H](O)CN2C(=O)[C@H]([C@@H](C)O)NC1=O` (single isomer, unassigned) [Example 9, caspofungin diacetate], for which the Purity is reported as 99.86%, the Initial purity is on record as 99.86% and the “stability of the samples” value is listed as “no degradation occured”.

The record behind these values is patent US9446091B2, “Caspofungin or salts thereof with high purity, as well as preparation method and use thereof” (Shanghai Techwell Biopharmaceutical Co., Ltd., priority 2011, dated 2016).
